Experimental data taken from patent US20260193647A1, “MIRNA-BASED CANCER THERAPY WITH A TUMOR-NAVIGATING PEPTIDE” (The Board of Trustees of the Universities of Illinois, priority 2022, published 2026).
pIC50: −log10 of the molar value.

Key:
normal human astrocytes = assay: CCK-8 cell viability assay, normal human astrocytes; assay type: cell-based; settings: 24 hr
Method: (§2) Cell viability was evaluated by a CCK-8 assay (Dojindo, Japan). Cells were seeded at a density of 4,000 cells per well in 100 μl of growth medium in 96-well plates and grown overnight. Then, the cells were exposed to antisense miR-20a alone, p28 alone or negative control or AmiR20-p28 over a range of concentrations and incubated for 24 hr. According to the manufacturer's instructions, 10 μl of CCK-8 solution was added to each well, followed by incubation for 1 hr at 37° C. The absorbance at 450 nm was determined by a multiplate reader.
(§3) Cell viability (%)=Abs(sample)−Abs(blank)/Abs(no treatment)−Abs(blank)×100

SJ-GBM2 cells [1] = assay: Annexin V/PI flow cytometric apoptosis assay, SJ-GBM2; assay type: cell-based, human; settings: 10 nM, 24 h
Method: (§1) Cells were seeded into 10-cm dishes and cultured overnight. Then, the cells were treated with 10 nM antisense miR-20a alone, p28 alone or AmiR20-p28 for 24 hr. Cells were washed with 1×PBS, detached with TrypleE (Invitrogen). and collected by centrifugation. Cells were washed and resuspended with 1× Annexin binding buffer (Life Technologies, catalog #V13242), and the cell density was maintained at 10^6 cells/ml. Subsequently, 5 μl of Annexin-V was added to 100 μl of the cell suspension, and the mixture was incubated for 15 min at room temperature. The cells were washed and incubated with 5 μl of PI for an additional 15 min on ice, washed and resuspended in 200 μl of buffer. Cells without treatment were used as controls. After washing, cells were subjected to flow cytometry (Gallios flow cytometer) and analyzed with Kaluza software to give the proportions of dead (top left quadrant), late apoptotic (top right quadrant), early apoptotic (bottom right quadrant) and viable (bottom left quadrant) cells.

aGBM (LN-229) cells = assay: Annexin V/PI flow cytometric apoptosis assay, aGBM (LN-229); assay type: cell-based, human; settings: 10 nM, 24 h
Method: as §1

astrocytes = assay: Annexin V/PI flow cytometric apoptosis assay, astrocytes; assay type: cell-based, human; settings: 10 nM, 24 h
Method: as §1

[2] = system: SJ-GBM2, CHLA-200, LN-229 and astrocytes; assay: Intracellular entry by qPCR detection of antisense miR-20a; assay type: cell-based, human; settings: 1, 10, 100 and 1,000 nM, 24 hr
From the text: Micro RNA enriched fraction was extracted using the miRNeasy Mini Kit (Qiagen, Catalog #217004) following the manufacturer's instructions. Stem loop real-time qPCR was used to analyze miRNA expression. We designed miR-20a stem loop RT primers and amplification primers according to a previously described method 79. cDNA was synthesized from extracted RNA using unique stem loop RT primers. The sequence of the stem loop primer for miR-20a was 5′-[…]-3′ (SEQ ID NO:7). Reverse transcriptase reactions contained the following reagents: 10 ng of RNA sample, 60 nM stem-loop RT primer, 1×RT buffer, 0.25 mM dNTP, and 4 U/μl reverse transcriptase. Reactions were performed by incubation at 16° C. for 30 min, 42° C. for 30 min and 85° C. for 5 min. Real-time PCR (7300 Real time PCR Systems, Applied Biosystems, CA) was performed using the specific forward primer for miR-20a (5′-[…]-3′ (SEQ ID NO:8)) and a universal reverse primer (5′-GTGCA GGGTC CGAGGT-3′ (SEQ ID NO:9)). The 20-μl PCR mixture included 1×SYBR Premix (Invitrogen), 2 μl of RT products and each forward and reverse primer at 10 nM. Reactions were performed by incubation in a 96-well plate at 95° C. for 30 sec, followed by 35 cycles of 95° C. for 30 sec and 60° C. for 30 sec. U6 was used as an internal control to normalize the level of target miRNAs. […]

SJ-GBM2-luc tumors = assay: Intracranial orthotopic SJ-GBM2-luc xenograft: bioluminescence and survival; assay type: in vivo, mice
Method: All animal experiments were performed in accordance with the use of animals in research and approved by IACUC. SJ-GBM2 cells stably expressing luciferase gene (pGL4.51 [luc2/CMV/Neo], Promega) were generated by a chemical transfection method (FuGENE HD, Promega) in the presence of G418 antibiotics (GoldBio). 4-5 weeks athymic mice were purchased from The Jackson Laboratory. SJ-GBM2-luc cell lines was maintained to 70% confluency and checked for their luminescence activity. Similar to the implantation method described previously, cells were resuspended in PBS at a final concentration of 10^6 cells/3 μl. Following anesthesia, a midline incision was made on the calvarium, extending from bregma to lambda sutures. At a position 2 mm posterior to bregma and 2 mm lateral to the […], a 3-mm hole was made in the skull. A 26-gauge Hamilton syringe was inserted into the hole, and 3 μl of 10^6 cells was injected slowly. The injection site was covered with sterile bone wax and sutured. As the first set of experiment, mice were randomly divided into the experimental groups and the dose finding studies were conducted with AmiR20-p28 at 0.1, and 1 mg/kg. AmiR20-p28 was administered every other day three times a week i.v. via the tail vein (200 μl/injection). As the second set of experiment, mice were randomly divided into the groups of PBS or AmiR20-p28 at 1 and 5 mg/kg (N=5). […] Mice were sacrificed based on the following humane endpoints such as >20% weight loss, the presence of labored respiration, abnormal behavior (e.g., paralysis), and loss of the ability to ambulate.
D-Luciferin potassium salt (GoldBio, #LUCK-100) at 150 mg/kg was injected intraperitoneally into the mice. Mice were anesthetized in a chamber with isoflurane/oxygen and positioned for bioluminescent imaging using a Spectral Lago X imaging system (Accela, Czech Republic). A series of images was acquired over a duration up to 30 min after the time of D-luciferin injection. Aura software (version 3.2) was used to compute regions of interest (ROIs) and integrate the total bioluminescence signal in each ROI. Data were analyzed based on radiance (photons/second/cm^2/steradian) in the ROIs. The radiance values were plotted for each animal in the experimental group to form the tumor growth curve. Overall survival was also evaluated based on their survival period (mice died due to disease or were sacrificed based on the humane endpoints criteria). For X-ray imaging, the anesthetized mice were positioned, and a Spectral Lago X imaging system was used to take images. Aura software was used to merge the images taken with X-ray and bioluminescent systems.

SJ-GBM2 cells [3] = settings: read-out: IC50 (cell viability); 24 hr
Method: as §2, §3

[4] = Example 6, 1 mg/kg i.v., late phase

## AmiR20-p28: BBB-permeable tumor-navigating CPP p28 (Cys-p28) covalently linked to 2′ O-methyl antisense miR-20a (5′-maleimide)
Normal human astrocytes
  effect on cell viability: negligible
SJ-GBM2 cells [1]
  increase in apoptotic cells by: 16%
aGBM (LN-229) cells
  apoptotic cells after treatment: 6.7%
astrocytes
  apoptotic cells after treatment: 0.5%
[2]
  penetration into pGBM and aGBM cells (qPCR of antisense miR-20a): preferential and dose-dependent penetration
SJ-GBM2-luc tumors; 1 and 5 mg/kg, continued or stopped treatment after four weeks, additional ~two months
  tumor recurrence: neither the 1 mg/kg nor the 5 mg/kg dose groups exhibited any signs of tumor recurrence
SJ-GBM2-luc tumors; 1 or 5 mg/kg i.v. 3× weekly, vs PBS or 0.1 mg/kg
  tumor growth (bioluminescence): significant inhibition of tumor growth
SJ-GBM2-luc tumors; Example 6, 1 mg/kg i.v., early phase
  overall survival rate: 100%
SJ-GBM2-luc tumors; Example 6, 1 mg/kg i.v., early phase, start 10 days after cell injection
  tumor growth (bioluminescence): complete repression of tumor
SJ-GBM2-luc tumors; [4]
  mice survived at day 49: 80%
  overall survival rate: 40%
SJ-GBM2-luc tumors; Example 6, 1 mg/kg i.v., late phase, start 40 days after cell injection
  tumor growth (bioluminescence): tumor progression was observed
SJ-GBM2-luc tumors; Example 6, 1 mg/kg i.v., middle phase
  overall survival rate: 80%
SJ-GBM2-luc tumors; Example 6, 1 mg/kg i.v., middle phase, start 20 days after cell injection
  tumor growth (bioluminescence): sustained suppression of the tumor burden
SJ-GBM2-luc tumors; Example 7, 1 mg/kg i.v., early phase, 10 days after cell injection
  tumor growth (bioluminescence): complete repression of tumor
SJ-GBM2-luc tumors; Example 7, 1 mg/kg i.v., late phase, 42 days after cell injection
  tumor growth (bioluminescence): tumor progression
SJ-GBM2-luc tumors; Example 7, 1 mg/kg i.v., middle phase, 21 days after cell injection
  tumor growth (bioluminescence): sustained suppression of tumor growth
SJ-GBM2-luc tumors; Example 7, 1 mg/kg, late phase
  overall survival probability: 60%
SJ-GBM2-luc tumors; Example 7, 1 mg/kg, vs PBS and 0.1 mg/kg
  tumor growth (bioluminescence): significant repression in tumor growth
SJ-GBM2 cells [3]
  pIC50: 8.10
